Results published in patent US6417167B1, “Lyophilized compositions containing shingoglycolipid and process for preparing them” (Kirin Beer Kabushiki Kaisha, priority 1997, dated 2002).
In brackets after ≈: the same amount, converted by molar mass. Read-outs that look alike come from different tables or passages of the source.

Columns and labels:
Assay type in all cases: physicochemical
[1] = Examination of optimal formulation: re-solubility after storage; conditions: lyophilized, Polysorbate 20 0.5%
Protocol: (§1) First, Polysorbate 20 was dissolved in distilled water in a concentration of 0.5%, and sucrose and histidine or sodium deoxycholate in such concentrations listed on Table 11. Next, 20 mg of the active component (KRN7000) was weighed and stirred in 100 ml of the solvents in a heated bath to 80° C. for 20 minutes in order to form a solution. After cooling with running water, the mixture was filtered through a 0.22 μm filter, and transparent colorless glass vials having a volume of 5 ml were charged with a 1 ml portion of each of a variety of solutions thus obtained and subjected to lyophilization. Lyophilization was carried out under the condition of preliminary freezing at −40° C. for 2 hours and drying at −20° C. for 24 hours, 10° C. for 12 hours, and finally at 25° C. for 5 hours to give the lyophilized product. The degree of vacuum was set at 0.1 Torr or less during drying step.
After the lyophilization step, the lyophilized composition thus obtained was stored at 25° C. or 50° C. After storage at 25° C. for 2 months or at 50° C. for 2 weeks, the lyophilized composition was reconstituted in 1 ml of distilled water for injection, left standing for 30 minutes, and solubility was judged when the foams generated on reconstitution disappeared. The samples judged to be solution after storage at 25° C. for 2 months were further stored, and judged again of their solubility after storage for 4 months.
(§2) The solubility was judged by cleaning the outside of the vial and placing it beneath the white light source in a darkroom for observation with naked eye at the position of a luminous intensity of about 5,000 lux. When the sample was clear with no precipitates, it was judged that the active component was dissolved.

[2] = Lyophilized preparations with Polysorbate 20 alone: re-solubility immediately after lyophilization; conditions: KRN7000 200 μg/ml, reconstituted in 1 ml distilled water for injection
Protocol: as §1, with “Next,” for “First, Polysorbate 20 was dissolved in distilled water in a concentration of 0.5%, and sucrose and histidine or sodium deoxycholate in such concentrations listed on Table 11. Next,”, “Polysorbate solutions having a variety of concentrations” for “solvents”, “solutions” for “solutions thus obtained”, “lyophilizaiton.” for “lyophilization.”
After the lyophilization step, the lyophilized composition was reconstituted in 1 ml of distilled water for injection, left standing for 30 minutes, and solubility was judged when the foams generated on reconstituiton disappeared.
as §2

[3] = Selection of a solvent for the active component: solubility judged by naked eye; conditions: thermodynamic from solid, read-out: Judgment of solubility (by naked eye)
Protocol: First, 1 mg of the active component (KRN7000) was weighed and stirred in 100 ml of a variety of solvents (Table 3) in a heated bath to 80° C. for 20 minutes in order to form a solution having a concentration of 10 μg/ml. With respect to the solvents which were judged to have successfully dissolved 10 μg/ml of the active component, dissolution was further tried in the same manner as above in order to form a solution having a concentration of 100 μg/ml. With respect to the solvents which were judged to have successfully dissolved 100 μg/ml of the active component, dissolution was further tried in the same manner as above in order to form a solution having a concentration of 200 μg/ml. After cooling with running water, the solubility of the component was judged.
The solubility of the component was judged by the test described below. First, transparent colorless glass vials having a volume of 5 ml were charged with about 1.5 ml portion of each sample and sealed up. The vial was cleaned outside and placed beneath the white light source in a darkroom for observation with naked eye at the position of a luminous intensity of about 5,000 lux. When the sample was clear with no precipitates, it was judged that the active component was dissolved.

Re-solubility after storage (by naked eye) ([1]; Sucrose 1.1%, Histidine, 4%, 50° C., 2 weeks): + (not dissolved (or deposited))
Re-solubility after storage (by naked eye) ([1]; Sucrose 3.1%, Histidine, 3%, 50° C., 2 weeks): − (dissolved)
Re-solubility after storage (by naked eye) ([1]; Sucrose 3.2%, Histidine, 2%, 50° C., 2 weeks): − (dissolved)
Re-solubility after storage (by naked eye) ([1]; Sucrose 4.8%, Sodium deoxycholate, 0.2%, 25° C., 2 months): + (not dissolved (or deposited))
Re-solubility after storage (by naked eye) ([1]; Sucrose 4.8%, Sodium deoxycholate, 0.5%, 25° C., 2 months): − (dissolved)
Re-solubility after storage (by naked eye) ([1]; Sucrose 4.8%, Sodium deoxycholate, 0.5%, 25° C., 4 months): − (dissolved)
Re-solubility after storage (by naked eye) ([1]; Sucrose 4.8%, Sodium deoxycholate, 1%, 25° C., 2 months): − (dissolved)
Re-solubility after storage (by naked eye) ([1]; Sucrose 4.8%, Sodium deoxycholate, 1%, 25° C., 4 months): − (dissolved)
Re-solubility after storage (by naked eye) ([1]; Sucrose 4.8%, Sodium deoxycholate, 2%, 25° C., 2 months): − (dissolved)
Re-solubility after storage (by naked eye) ([1]; Sucrose 4.8%, Sodium deoxycholate, 2%, 25° C., 4 months): − (dissolved)
Re-solubility after storage (by naked eye) ([1]; Sucrose 5.0%, Histidine, 2%, 50° C., 2 weeks): − (dissolved)
Re-solubility after storage (by naked eye) ([1]; Sucrose 5.1%, Histidine, 1%, 50° C., 2 weeks): − (dissolved)
Re-solubility after storage (by naked eye) ([1]; Sucrose 6.9%, Histidine, 1%, 50° C., 2 weeks): − (dissolved)
Re-solubility after storage (by naked eye) ([1]; Sucrose 7.9%, Histidine, 0.5%, 50° C., 2 weeks): + (not dissolved (or deposited))
Re-solubility after storage (by naked eye) ([1]; Sucrose 9.6%, Histidine, 2%, 50° C., 2 weeks): − (dissolved)
Re-solubility after storage (by naked eye) ([1]; Sucrose 9.6%, Sodium deoxycholate, 0.2%, 25° C., 2 months): + (not dissolved (or deposited))
Re-solubility after storage (by naked eye) ([1]; Sucrose 9.6%, Sodium deoxycholate, 0.5%, 25° C., 2 months): − (dissolved)
Re-solubility after storage (by naked eye) ([1]; Sucrose 9.6%, Sodium deoxycholate, 0.5%, 25° C., 4 months): − (dissolved)
Re-solubility after storage (by naked eye) ([1]; Sucrose 9.6%, Sodium deoxycholate, 1%, 25° C., 2 months): − (dissolved)
Re-solubility after storage (by naked eye) ([1]; Sucrose 9.6%, Sodium deoxycholate, 1%, 25° C., 4 months): − (dissolved)
Re-solubility after storage (by naked eye) ([1]; Sucrose 9.6%, Sodium deoxycholate, 2%, 25° C., 2 months): − (dissolved)
Re-solubility after storage (by naked eye) ([1]; Sucrose 9.6%, Sodium deoxycholate, 2%, 25° C., 4 months): − (dissolved)
Re-solubility after storage (by naked eye) ([1]; Sucrose 19.2%, Sodium deoxycholate, 0.1%, 25° C., 2 months): + (not dissolved (or deposited))
Re-solubility after storage (by naked eye) ([1]; Sucrose 19.2%, Sodium deoxycholate, 0.2%, 25° C., 2 months): + (not dissolved (or deposited))
Re-solubility after storage (by naked eye) ([1]; Sucrose 19.2%, Sodium deoxycholate, 0.5%, 25° C., 2 months): + (not dissolved (or deposited))
Re-solubility after storage (by naked eye) ([1]; Sucrose 19.2%, Sodium deoxycholate, 1%, 25° C., 2 months): + (not dissolved (or deposited))
Re-solubility after storage (by naked eye) ([1]; Sucrose 19.2%, Sodium deoxycholate, 2%, 25° C., 2 months): + (not dissolved (or deposited))
Re-solubility immediately after lyophilization (by naked eye) ([2]; Polysorbate 20 0.5%): + (not dissolved (or deposited))
Re-solubility immediately after lyophilization (by naked eye) ([2]; Polysorbate 20 1.0%): + (not dissolved (or deposited))
Re-solubility immediately after lyophilization (by naked eye) ([2]; Polysorbate 20 2.0%): + (not dissolved (or deposited))
solubility at 20 min ([3]; 0.5% Cremophor, 80 °C, aqueous with cosolvent or surfactant or cyclodextrin, solvent 0.5% Cremophor, KRN7000 10 μg/ml): < 10 µg/mL
solubility at 20 min ([3]; 0.5% HCO 50, 80 °C, aqueous with cosolvent or surfactant or cyclodextrin, solvent 0.5% HCO 50, KRN7000 10 μg/ml): < 10 µg/mL
solubility at 20 min ([3]; 0.5% HCO 60, 80 °C, aqueous with cosolvent or surfactant or cyclodextrin, solvent 0.5% HCO 60, KRN7000 10 μg/ml): < 10 µg/mL
solubility at 20 min ([3]; 0.5% Polyoxamer 188, 80 °C, aqueous with cosolvent or surfactant or cyclodextrin, solvent 0.5% Polyoxamer 188, KRN7000 10 μg/ml): < 10 µg/mL
solubility at 20 min ([3]; 0.5% Polysorbate 20, 80 °C, aqueous with cosolvent or surfactant or cyclodextrin, solvent 0.5% Polysorbate 20, KRN7000 10 μg/ml): > 10 µg/mL
solubility at 20 min ([3]; 0.5% Polysorbate 20, 80 °C, aqueous with cosolvent or surfactant or cyclodextrin, solvent 0.5% Polysorbate 20, KRN7000 100 μg/ml): > 100 µg/mL
solubility at 20 min ([3]; 0.5% Polysorbate 20, 80 °C, aqueous with cosolvent or surfactant or cyclodextrin, solvent 0.5% Polysorbate 20, KRN7000 200 μg/ml): > 200 µg/mL
solubility at 20 min ([3]; 0.5% Polysorbate 80, 80 °C, aqueous with cosolvent or surfactant or cyclodextrin, solvent 0.5% Polysorbate 80, KRN7000 10 μg/ml): > 10 µg/mL
solubility at 20 min ([3]; 0.5% Polysorbate 80, 80 °C, aqueous with cosolvent or surfactant or cyclodextrin, solvent 0.5% Polysorbate 80, KRN7000 100 μg/ml): 10 to 100 µg/mL (≈ 11.7 to 117 µM)
solubility at 20 min ([3]; 1N HCl, 80 °C, simulated gastric fluid, solvent 1N HCl, KRN7000 10 μg/ml): < 10 µg/mL
solubility at 20 min ([3]; 1N NaOH, 80 °C, aqueous buffer, solvent 1N NaOH, KRN7000 10 μg/ml): < 10 µg/mL
solubility at 20 min ([3]; Distilled water, 80 °C, water, solvent Distilled water, KRN7000 10 μg/ml): < 10 µg/mL
solubility at 20 min ([3]; Ethanol, 80 °C, organic solvent or mixture, solvent Ethanol, KRN7000 10 μg/ml): > 10 µg/mL
solubility at 20 min ([3]; Ethanol, 80 °C, organic solvent or mixture, solvent Ethanol, KRN7000 100 μg/ml): > 100 µg/mL
solubility at 20 min ([3]; Ethanol, 80 °C, organic solvent or mixture, solvent Ethanol, KRN7000 200 μg/ml): > 200 µg/mL
solubility at 20 min ([3]; Glycerol, 80 °C, organic solvent or mixture, solvent Glycerol, KRN7000 10 μg/ml): > 10 µg/mL
solubility at 20 min ([3]; Glycerol, 80 °C, organic solvent or mixture, solvent Glycerol, KRN7000 100 μg/ml): 10 to 100 µg/mL (≈ 11.7 to 117 µM)
solubility at 20 min ([3]; Macrogol 400, 80 °C, organic solvent or mixture, solvent Macrogol 400, KRN7000 10 μg/ml): > 10 µg/mL
solubility at 20 min ([3]; Macrogol 400, 80 °C, organic solvent or mixture, solvent Macrogol 400, KRN7000 100 μg/ml): 10 to 100 µg/mL (≈ 11.7 to 117 µM)
solubility at 20 min ([3]; Propylene glycol, 80 °C, organic solvent or mixture, solvent Propylene glycol, KRN7000 10 μg/ml): > 10 µg/mL
solubility at 20 min ([3]; Propylene glycol, 80 °C, organic solvent or mixture, solvent Propylene glycol, KRN7000 100 μg/ml): 10 to 100 µg/mL (≈ 11.7 to 117 µM)
SMILES: CCCCCCCCCCCCCCCCCCCCCCCCCC(=O)N[C@@H](CO[C@H]1O[C@H](CO)[C@H](O)[C@H](O)[C@H]1O)[C@H](O)[C@H](O)CCCCCCCCCCCCCC [KRN7000, (2S,3S,4R)-1-(α-D-galactopyranosyloxy)-2-hexacosanoylamino-3,4-octadecanediol]
